Reference: US8362018B2, “Substituted imidazo[1,2-a]pyrazine compounds useful for the treatment of viral infections” (Biofocus DPI, Ltd., priority 2007, dated 2013)

How the values were obtained:
HCV replicon = assay: anti-viral assay (EC50), Table 13; format: cell-based; settings: Hepatitis C virus, anti-viral assays
Source text: The ability of a compound to inhibit HCV replication can be measured in vitro or using animal models using models and assays well known to those of skill in the art (e.g. Pietschmann et al, Clin Liver Dis. 7(1)c23-43, 2003). In vitro techniques for measuring the ability of a compound to inhibit HCV replication involve using HCV or an HCV replicon. Because HCV is difficult to grow in culture, particular in vitro techniques employ an HCV replicon.
An HCV replicon is an RNA molecule able to autonomously replicate in a cultured cell, such as Huh7. The HCV replicon expresses the HCV derived components of the replication machinery and contains cis-elements required for replication in a cultured cell. […]

[1] = cytotoxicity measurement (CC50), Table 13; format: cell-based; settings: human, Huh7 cells

Structure (SMILES)	EC50 (HCV replicon) [nM]	CC50 [1] [µM]
COc1ccc2cc(-c3cnc4c(NCc5ccc(S(N)(=O)=O)cc5)nccn34)ccc2c1 [Compound 55]	1000 to 20000	< 35
CS(=O)(=O)Nc1cccc(-c2cnc3c(NCCc4ccncc4)nccn23)c1 [Compound 4]	1000 to 20000	> 35
Cc1cn2c(-c3ccc(O)cc3)cnc2c(NCc2ccc(S(N)(=O)=O)cc2)n1 [Compound 110, 4-{[3-(4-Hydroxy-phenyl)-6-methyl-imidazo[1,2-a]pyrazin-8-ylamino]-methyl}-benzenesulfonamide]	< 1000	< 35
COc1ccc(-c2cnc3c(NCc4cccnc4)nccn23)cc1OC [Compound 7]	1000 to 20000	> 35
NS(=O)(=O)c1ccc(CNc2nccn3c(-c4ccc(F)c(Cl)c4)cnc23)cc1 [Compound 10]	1000 to 20000	> 35
Oc1ccc(-c2cnc3c(NCc4ccncc4)nccn23)cc1 [Compound 5]	1000 to 20000	> 35
Oc1ccc(-c2cnc3c(NCc4cccnc4)nccn23)cc1 [Compound 58]	1000 to 20000	< 35
Oc1ccc(-c2cnc3c(NCc4ccc5c(c4)OCO5)nccn23)cc1 [Compound 61]	1000 to 20000	< 35
NS(=O)(=O)c1cccc(CNc2nccn3c(-c4ccc(O)c(F)c4)cnc23)c1 [Compound 57]	< 1000	> 35
NS(=O)(=O)c1ccc(CNc2nc(Br)cn3c(Br)cnc23)cc1 [Compound 113, 4-[(3,6-Dibromo-imidazo[1,2-a]pyrazin-8-ylamino)-methyl]-benzenesulfonamide]	> 20000	> 35
COc1ccc(-c2cnc3c(NCc4ccc(S(C)(=O)=O)cc4)nccn23)cc1OC [Compound 19]	1000 to 20000	> 35
Oc1cccc(-c2cnc3c(NCc4cccnc4)nccn23)c1 [Compound 76]	1000 to 20000	< 35
NS(=O)(=O)c1ccc(CNc2nccn3c(-c4ccc(O)cc4F)cnc23)cc1 [Compound 91, 4-{[3-(2-Fluoro-4-hydroxy-phenyl)-imidazo[1,2-a]pyrazin-8-ylamino]-methyl}-benzenesulfonamide]	< 1000	> 35
Cc1cc(-c2cnc3c(NCc4ccc(S(N)(=O)=O)cc4)nccn23)ccc1O [Compound 88, 4-{[3-(4-Hydroxy-3-methyl-phenyl)-imidazo[1,2-a]pyrazin-8-ylamino]-methyl}-benzenesulfonamide]	< 1000	> 35
CC(C)c1ccc(Nc2nccn3c(-c4cccc(NS(C)(=O)=O)c4)cnc23)cc1 [Compound 70]	1000 to 20000	< 35
NS(=O)(=O)c1ccc(CNc2nc(-c3ccc(O)cc3)cn3c(-c4ccc(O)cc4)cnc23)cc1 [Compound 114, 4-{[3,6-Bis-(4-hydroxy-phenyl)-imidazo[1,2-a]pyrazin-8-ylamino]-methyl}-benzenesulfonamide]	< 1000	< 35
Cc1cn2c(-c3ccc(O)c(F)c3)cnc2c(NCc2ccc(S(N)(=O)=O)cc2)n1 [Compound 111]	< 1000	> 35
Oc1cccc(-c2cnc3c(NCCc4cccnc4)nccn23)c1 [Compound 85]	1000 to 20000	< 35
COCCCNc1nccn2c(-c3ccc(OC)c(OC)c3)cnc12 [Compound 78]	1000 to 20000	< 35
Oc1ccc(-c2cnc3c(NCc4cccs4)nccn23)cc1 [Compound 59]	1000 to 20000	< 35
CNS(=O)(=O)c1ccc(CNc2nccn3c(-c4ccc(O)cc4)cnc23)cc1 [Compound 103]	1000 to 20000	> 35

Structure (SMILES)	EC50 (HCV replicon) [nM]	CC50 [1] [µM]
COc1cc(-c2cnc3c(NCc4cccc(S(N)(=O)=O)c4)nccn23)ccc1O [Compound 56]	< 1000	< 35
OCc1ccc(-c2cnc3c(NCc4ccc5c(c4)OCO5)nccn23)cc1 [Compound 81]	1000 to 20000	< 35
NS(=O)(=O)c1ccc(CNc2nccn3c(-c4ccc(O)c(F)c4)cnc23)cc1 [Compound 25]	< 1000	> 35
CN1CCN(c2ccc(-c3cnc4c(Nc5cccc(OC(F)(F)C(F)F)c5)nccn34)cn2)CC1 [Compound 63]	1000 to 20000	< 35
CC(=O)c1cccc(-c2cnc3c(NCCc4cccnc4)nccn23)c1 [Compound 84]	1000 to 20000	< 35
NS(=O)(=O)c1ccc(CNc2nccn3c(-c4ccc(CO)o4)cnc23)cc1 [Compound 46]	1000 to 20000	> 35
Cc1ccccc1CNc1nccn2c(-c3ccc(O)cc3)cnc12 [Compound 36]	1000 to 20000	< 35
NS(=O)(=O)c1ccc(CNc2nccn3c(-c4ccc5c(c4)OCO5)cnc23)cc1 [Compound 8]	1000 to 20000	< 35
Cc1cc(O)ccc1-c1cnc2c(NCc3ccc(S(N)(=O)=O)cc3)nccn12 [Compound 33]	1000 to 20000	> 35
COc1cc(CNc2nccn3c(-c4ccc(O)cc4)cnc23)cc(OC)c1OC [Compound 60]	1000 to 20000	< 35
COc1ccc(-c2cnc3c(NCCNC(C)=O)nccn23)cc1OC [Compound 26]	1000 to 20000	> 35
COc1cc(-c2cnc3c(NCc4ccc(S(N)(=O)=O)cc4)ncc(C)n23)ccc1O [Compound 109]	< 1000	< 35
Cc1nc2c(NCc3ccc(S(N)(=O)=O)cc3)nccn2c1-c1ccc(O)c([N+](=O)[O-])c1 [Compound 107]	1000 to 20000	> 35
COc1ccc(-c2cnc3c(NCc4ccc(CO)cc4)nccn23)cc1OC [Compound 93, (4-{[3-(3,4-Dimethoxy-phenyl)-imidazol[1,2-a]pyrazin-8-ylamino]-methyl}-phenyl)-methanol]	1000 to 20000	> 35
OCc1ccc(-c2cnc3c(NCc4ccc(F)cc4)nccn23)cc1 [Compound 79]	1000 to 20000	< 35
COc1cc(-c2cnc3c(NCc4ccc(S(N)(=O)=O)cc4)nccn23)cc(Cl)c1O [Compound 31]	1000 to 20000	> 35
Cc1cnc(NCc2ccc(S(N)(=O)=O)cc2)c2ncc(-c3ccc(O)cc3)n12 [Compound 108, 4-{[3-(4-Hydroxy-phenyl)-5-methyl-imidazo[1,2-a]pyrazin-8-ylamino]-methyl}-benzenesulfonamide]	< 1000	< 35
Cc1cccc(CNc2nccn3c(-c4ccc(O)cc4)cnc23)c1 [Compound 35]	1000 to 20000	< 35
COc1ccc(CNc2nccn3c(-c4ccc(O)cc4)cnc23)cc1 [Compound 40]	1000 to 20000	> 35
CC(C)c1ccc(Nc2nccn3c(-c4ccc(O)cc4)cnc23)cc1 [Compound 69]	1000 to 20000	< 35
